Experiments:
[1] = test system: HCT-116 cells; experiment: Survival assay (MTT), HCT-116; format: cell-based, human; conditions: Homo sapiens
Experimental: (§1) Cells were incubated with the drugs for 72 hours.

[2] = test system: G14 cells; experiment: Survival assay (MTT), G14; format: cell-based, human; conditions: Homo sapiens, G14, Glioma, Grade IV, 72 hours
Experimental: Primary glioma neural stem (GNS) cells (G7, G14, G144, G166) were cultured on poly-D-lysine (Merck Millipore, Cat. Nr. A-003-E) and laminin (R&D Systems, Cat.Nr. 3446-005-01) coated plates in neural stem cell medium (50% DMEM-F12 (Thermofisher, Cat. Nr. 21041025), 50% neurobasal medium (Thermofisher, Cat. Nr. 10888-022), N2 (Life Technologies, Cat. Nr. A-003-E) and B27 supplements (Life Technologies, Cat.Nr. 12587010), 1 mM sodium pyruvate (Life Technologies, Cat.Nr. 11360-039), 2 mM glutamax (Life Technologies, Cat. Nr. 35050038), 1 mM HEPES (Fisher Scientific, Cat. Nr. BP299-1), 0.1 mM β-mercaptoethanol (Life Technologies, Cat. Nr. 31350010), 1× nonessential amino acids (Life Technologies, Cat. Nr. 11140-035), 0.006% bovine serum albumin (Sigma, Cat. Nr. A8577-10ML), 4 μg/ml heparin (Sigma, Cat. Nr. H3149-25KU), 100 U/ml penicillin, 100 μg/ml streptomycin, 20 ng/ml hEGF (R&D Systems, Cat. Nr. 236-EG-200), 10 ng/ml bFGF (Peprotech, Cat. Nr. 100-18B).
as §1

[3] = test system: G30 cells; experiment: Survival assay (MTT), G30; format: cell-based, human; conditions: Homo sapiens, G30, Glioma, Grade IV, 72 hours
Experimental: (§2) Cells were passed between 70 and 90% confluence.
as §1

[4] = test system: U87-MG cells; experiment: Survival assay (MTT), U87-MG; conditions: for cytotoxicity to U87-MG cells (cell survival): up to 100 μM; for IC50: U87-MG; for rescue of cytotoxicity by the addition of thymidine: U87-MG cells; for cytotoxic effect in combination with Temozolomide: temozolomide resistant U87-MG cells
Experimental: Cell lines not mentioned above were grown in DMEM (Sigma, Cat.Nr. D6429) supplemented with 10% Fetal Bovine Serum and 100 U/ml penicillin 100 U/ml streptomycin. All cells were maintained in a 5% CO2, humidified, water-jacketed incubator at 37° C. Cells were passed between 70 and 90% confluence.
In a 96-well plate, 4000 cells in 100 μl of corresponding medium were seeded. The following day, drugs, diluted in DMSO, were added in 8 concentrations in triplicate. Drugs were added as a 4-fold dilution series starting from 100 μM. Cells were incubated with the drugs for 72 hours. Cell proliferation was assessed by MTT assay according to the manufacturer's protocol (ATCC, Cat. Nr. 30-1010K). Cell survival was normalized to the survival of cells treated with DMSO only. Experiment was performed three times, data represent mean of nine wells±SEM.
In a 96-well plate, 4000 cells in 100 μl of corresponding medium were seeded. The following day, drugs, diluted in DMSO, were added in triplicate at a concentration of 100, 25, 6.25, 1.56, 0.39, 0.1, 0.02, or 0.006 ┘M. Cells were incubated with the drugs for 72 hours. Cell proliferation was assessed by MTT assay according to the manufacturer's protocol (ATCC, Cat. Nr. 30-1010K). Cell survival was normalized to the survival of cells treated with DMSO only. Experiment was performed three times, data represent mean of nine wells±SEM.

[5] = test system: U937 cells; experiment: Survival assay (MTT), U937; format: cell-based, human; conditions: Homo sapiens, U-937
Experimental: as §2, §1

[6] = test system: HEK293FT cells; experiment: Survival assay (MTT), HEK293FT; format: cell-based; conditions: Homo sapiens
Experimental: as §2, §1
The present inventors further investigated the extent to which these compounds kill normal human cells; low cytotoxicity against normal human cells is advantageous property for anti-cancer agents. The cytotoxicity of these compounds in various normal human cell lines was therefore investigated (Table 3). Cells were grown and the survival assay was performed as described above (Materials and Methods).

[7] = test system: U87-MG; experiment: Glioblastoma Multiforme mouse xenograft model; format: in vivo, mice; conditions: five doses; for tumour volume: over all time points
Experimental: Standard agent, Temozolomide, was provided by Oslo University Hospital in powder form and was formulated fresh prior to each dose by first adding appropriate volume of DMSO to pre-weighed compound, then adding appropriate volumes of Solutol (RTM) and PBS (5% DMSO/5% Solutol (RTM)/90% PBS). […] Standard agent, Temozolomide, was administered at a dose volume of 10 mL/kg.
The human brain malignant glioma cell line, U87-MG (ATCC HTB-14, epithelial glioblastoma), was obtained from American Type Culture Collection (ATCC). The cells were cultured in Minimum essential medium containing 5% fetal bovine serum (FBS) at 37° C., with 5% CO2 in an incubator.
Female (nu/nu) nude mice aged 6-7 weeks obtained from BioLasco Taiwan (under Charles River Laboratories Licensee) were used. The animals were housed in individually ventilated cages (IVC, 36 Mini Isolator system). The allocation for 5 animals was 27×20×14 in cm. All animals were maintained in a hygienic environment under controlled temperature (20-24° C.) and humidity (30%-70%) with 12-hour light/dark cycle.
Viable U87-MG (ATCC HTB-14) cells were subcutaneously (SC) implanted (5×10^6 cells/mouse in PBS at 0.2 mL/mouse) into the right flank of female nu/nu mice. When group mean tumor volumes reached approximately 129 mm^3 to 131 mm^3, tumor implanted mice were divided into four treatment groups, each group containing eight animals, and dose administrations were initiated (denoted as Day 1).
5-hydroxymethyl-2′-deoxycytidine, 5-formyl-2′-deoxycytidine at 2000 mg/kg and corresponding vehicle (5% DMSO/5% Solutol (RTM)/90% PBS) were administered intraperitoneally (IP) once every three days for a total of five administrations. Temozolomide at 40 mg/kg was administered orally (PO) once daily for five total administrations.
The tumor volume, body weight, mortality, and signs of overt toxicity were monitored and recorded twice weekly for 29 days. Tumor volume (mm^3) was estimated according to the ellipsoid formula as: length×(width)^2×0.5. Tumor growth inhibition (T/C) was calculated by the following formula:
[formula] • Cn: Tumor weight measured on Day n in the control group • Tn: Tumor weight measured on Day n in the treated group • % T/C value≤42% was considered significant antitumor activity (#). Percent tumor growth inhibition (TGI) was also calculated by the following formula:
[formula] • % TGI value≥58% was considered significant antitumor activity (#).
Two-way ANOVA (RTM) followed by Bonferroni test was also used to ascertain the statistically significant difference compared to the negative control group during study; Day 1 through to Day 29. Differences are considered significant at p<0.05 (*).
5-formyl-2′deoxycytidine and 5-hydroxymethyl-2′-deoxycytidine were evaluated in a Glioblastoma Multiforme mouse xenograft model as described above (Materials and Methods). U87-MG cells were injected subcutaneously into the flank of nude mice. Tumours were allowed to form as described above (Materials and Methods). After the tumours reached between 129 mm^3 and 131 mm^3 animals were divided into 4 groups—two treatment groups, a negative control group and a positive control group. The two treatment groups were 5-formyl-2′-deoxycytidine and 5-hydroxymethyl-2′-deoxycytidine. […]
The tumour volume (FIG. 1C), body weight (FIG. 1D), mortality, and signs of overt toxicity were monitored and recorded twice weekly for 29 days. […]

[8] = test system: 22Rv1 cells; experiment: Survival assay (MTT), 22Rv1; format: cell-based, human; conditions: Homo sapiens
Experimental: as §2, §1

[9] = HCT-116, 72 h, HCT-116, Colon Carcinoma, 72 hours, MTT
[10] = HCT-116, HCT-116, Tables 6 and 7, unit inferred
[11] = Homo sapiens, U-87 MG, 72 h, Glioma, Grade IV, MTT
[12] = Homo sapiens, U-87 MG, Tables 6 and 7, unit inferred
[13] = U937, Tables 6 and 7, unit inferred
[14] = HEK293, Tables 6 and 7, unit inferred
[15] = 2000 mg/kg IP every three days, end of study (Day 29)
[16] = 22Rv1, 22Rv1, Tables 6 and 7, unit inferred
[17] = 22Rv1, 72 h, 22Rv1, Prostate Carcinoma, 72 hours, MTT
[18] = 72 hours, MTT, listed as 5-hydroxymethyl-2′-deoxycytidine

Compound: Nc1nc(=O)n([C@H]2C[C@H](O)[C@@H](CO)O2)cc1C=O [2d5fC, 5-formyl-2′-deoxycytidine]
- IC50 [1, 9]: > 25 µM
- IC50 [1, 10]: ≥ 25 µM
- IC50 [2]: > 100 µM
- IC50 [3]: 18 µM
- cytotoxicity to U87-MG cells (cell survival) ([4]; 72 hours, MTT): markedly more cytotoxic
- IC50 [4, 11]: 0.334 µM
- IC50 [4, 12]: 0.334 µM
- rescue of cytotoxicity by the addition of thymidine ([4]; 72 hours, MTT): not rescued
- cytotoxic effect in combination with Temozolomide ([4]; 72 hours, MTT, listed as 5-formyl-2′-deoxycytidine): synergistically
- cytotoxic effect in combination with Temozolomide ([4]; 72 hours, MTT, listed as d5fC): more effective
- IC50 ([5]; U937, Lymophoma, 72 hours, MTT): 0.954 µM
- IC50 [5, 13]: 0.954 µM
- IC50 ([6]; 72 h, Normal, Kidney, MTT): > 25 µM
- IC50 [6, 14]: ≥ 25 µM
- tumour growth inhibition (TGI) [7, 15]: 83%
- tumour volume ([7]; 2000 mg/kg IP every three days): marked decrease in tumour volume
- IC50 [8, 16]: ≥ 25 µM
- IC50 [8, 17]: > 25 µM

Compound: Nc1nc(=O)n([C@H]2C[C@H](O)[C@@H](CO)O2)cc1CO [2d5hmC, 5-hydroxymethyl-2′-deoxycytidine]
- IC50 [1, 9]: > 25 µM
- IC50 [1, 10]: ≥ 25 µM
- IC50 [2]: 25.4 µM
- IC50 [3]: 28.1 µM
- cytotoxicity to U87-MG cells (cell survival) [4, 18]: cytotoxic
- cytotoxicity to U87-MG cells (cell survival) ([4]; 72 hours, MTT, listed as d5hmC): markedly more cytotoxic
- IC50 [4, 12]: 3.03 µM
- rescue of cytotoxicity by the addition of thymidine ([4]; 72 hours, MTT): not rescued
- IC50 ([4]; Glioma, Grade IV, 72 hours, MTT): > 0.334 µM
- cytotoxic effect in combination with Temozolomide [4, 18]: synergistically
- cytotoxic effect in combination with Temozolomide ([4]; 72 hours, MTT, listed as d5hmC): more effective
- IC50 ([5]; U937, Lymophoma, 72 hours, MTT): > 25 µM
- IC50 [5, 13]: ≥ 25 µM
- IC50 ([6]; 72 h, Normal, Kidney, MTT): > 25 µM
- IC50 [6, 14]: ≥ 25 µM
- tumour growth inhibition (TGI) [7, 15]: 93%
- tumour volume ([7]; 2000 mg/kg IP every three days): marked decrease in tumour volume
- IC50 [8, 16]: ≥ 25 µM
- IC50 [8, 17]: > 25 µM

Compound: Cn1nnc2c(C(N)=O)ncn2c1=O [Temozolomide, 4-methyl-5-oxo-2,3,4,6,8-pentazabicyclo[4.3.0]nona-2,7,9-triene-9-carboxamide, reference compound]
- IC50 [1, 9]: > 25 µM
- IC50 [2]: 6.02 µM
- IC50 [3]: 21.6 µM
- IC50 [4, 11]: > 25 µM
- IC50 ([5]; U937, Lymophoma, 72 hours, MTT): 13.1 µM
- IC50 ([6]; 72 h, Normal, Kidney, MTT): > 25 µM
- tumour growth inhibition (TGI) ([7]; positive control, 40 mg/kg PO once daily, end of study): 94%
- IC50 [8, 17]: > 25 µM

— patent US12605397B2, “Deoxy-cytidine or uridine derivatives for use in cancer therapies” (HEMISPHERIAN AS, priority 2019, dated 2026)
